Measured values: patent US20110275518A1 (priority 2007, published 2011)
Entries after “also recorded” stand apart in the source; their conditions may differ.

Experiments:
[1] = prior art teaching; cited from earlier work
pulse seeds = conditions: 0.1% to 1% aqueous coating; pea, chickpea, lentil, soybean
From the text: Germination on blotters was scored at 7- and 14-days. Emergence from soil was scored at 21- and 28-days.
To treat seeds, one hundred seeds were placed in a 50-mL Falcon tube and combined with the treatment solution. Seeds were mixed with the treatment for 5-min by gently rolling and inverting the Falcon tube. Coated seeds were placed in an open Petri plate for 30-min to dry. Seeds were sown 10-per pot, set in a greenhouse, and maintained under standard conditions with mercury lamp lighting supplementing daylight from 3:00 pm to 10:00 pm.
Place 100-seeds into a 50-mL Falcon tube and add 1-mL of treatment solution. Gently roll and invert the tube for 5 min to evenly coat each seed without causing damage. Remove seeds from tube by pouring carefully into an empty Petri plate. Leave exposed (lid off) and air dry seeds for 30 min.
(1) Germination: Place 50 seeds from each treatment onto 25 individual moistened blotters in large Petri plates. Incubate at room temperature for 2-weeks with or without light. Score germination at 7- and 14-days. (2) Emergence: Sow 50 seeds from each treatment into five pots (10-seeds per pot and five pots per treatment). Place in a greenhouse at 22° C. with ample air circulation. Use mercury lamps to supplement lighting (on at 3:00 pm-off at 10:00 pm) if necessary. For pre-emergent plants, water pots as needed to keep soil moist but not wet. Water emergent plants daily. […]

[2] = system: dry bean (Phaseolus vulgaris L) seeds, cultivar 'Othello'; assay: Germination of diseased dry bean seed under bacterial disease pressure (Experiment 1); type: in vivo
From the text: The precipitate is recovered by filtration and the powder is dried.
Seeds were placed on blotters in Petri plates, were soaked in an excess of water for 3 days, then drained on day 4. The 3-day period of excess water created extremely high pressure from pathogenic and saprophytic bacteria. This led to a very high bacterial load on the germinating seeds and high disease pressure due to pathogenic, saprophytic and soft-rot bacteria. This disease pressure was so extreme that the germination rates for experiments 2-5 were essentially zero due to being overwhelmed by the disease pressure.

healthy dry bean seed = assay: Germination of healthy dry bean seed; type: in vivo

Molecule	phytotoxicity [1]	effect on germination of pulse seeds (pulse seeds)	phytotoxicity / effect on germination of dry bean seeds ([2]; 0.1% to 1% treatments, days needed to reach 25% germination)	increase in germination compared with the negative control (sterile water) ([2]; 1% treatment, by day 10) [%]	Day to 50% germination (healthy dry bean seed; 1%) [days]	Day to 50% germination (healthy dry bean seed; […]) [days]
O=[N+]([O-])[O-].[Ag+] [silver nitrate]	phytotoxic					
oxysilver nitrate [high valency silver]		no negative effects on germination of any pulse seed	no negative effects on germination; also recorded: no phytotoxic effect on germinating seeds	34.7	5.0	5.0
